From patent US8461328B2, “Tricyclic heterocyclic compounds, compositions and methods of use thereof” (Genentech, Inc., priority 2010, dated 2013)
Counter-ions that a name gives are not always drawn.

Assays:
Assay type in all cases: biochemical
JAK1 = biological target: T1, JAK1 (Homo sapiens, UniProt P23458); test: JAK1 inhibition (Table 4); conditions: read-out: JAK1 Ki
T1 construct: made in house; host or cells: SF9 insect cells (baculovirus)

JAK2 = biological target: T2, JAK2 (Homo sapiens, UniProt O60674); test: JAK2 inhibition (Table 4); conditions: read-out: JAK2 Ki
T2 construct: made in house; host or cells: SF9 insect cells (baculovirus)

JAK3 = biological target: T3, JAK3 (Homo sapiens, UniProt P52333); test: JAK3 inhibition (Table 4); conditions: read-out: JAK3 Ki
T3 construct: made in house; host or cells: SF9 insect cells (baculovirus)

TYK2 = biological target: T4, TYK2 (Homo sapiens, UniProt P29597); test: TYK2 inhibition (Table 4)
T4 construct: made in house; host or cells: SF9 insect cells (baculovirus)
T4 sequence (P29597 873-1187): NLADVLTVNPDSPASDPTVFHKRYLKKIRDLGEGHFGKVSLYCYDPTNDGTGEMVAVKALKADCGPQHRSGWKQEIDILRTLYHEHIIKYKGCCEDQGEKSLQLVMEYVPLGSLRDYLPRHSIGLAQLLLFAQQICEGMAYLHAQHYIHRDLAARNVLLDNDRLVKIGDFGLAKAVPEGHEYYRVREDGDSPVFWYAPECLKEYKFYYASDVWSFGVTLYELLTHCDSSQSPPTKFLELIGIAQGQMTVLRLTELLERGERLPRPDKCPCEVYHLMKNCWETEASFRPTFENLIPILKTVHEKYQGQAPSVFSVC

T1 sequence (P23458 852-1154): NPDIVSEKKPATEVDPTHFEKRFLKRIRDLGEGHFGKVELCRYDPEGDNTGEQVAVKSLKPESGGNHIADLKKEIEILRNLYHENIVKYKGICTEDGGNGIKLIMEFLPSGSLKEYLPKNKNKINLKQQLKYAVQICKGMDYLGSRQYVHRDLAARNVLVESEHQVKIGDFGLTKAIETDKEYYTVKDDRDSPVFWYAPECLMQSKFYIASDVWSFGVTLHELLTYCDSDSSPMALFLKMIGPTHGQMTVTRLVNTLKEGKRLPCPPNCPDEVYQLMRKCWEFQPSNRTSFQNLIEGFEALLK
T2 sequence (O60674 812-1132): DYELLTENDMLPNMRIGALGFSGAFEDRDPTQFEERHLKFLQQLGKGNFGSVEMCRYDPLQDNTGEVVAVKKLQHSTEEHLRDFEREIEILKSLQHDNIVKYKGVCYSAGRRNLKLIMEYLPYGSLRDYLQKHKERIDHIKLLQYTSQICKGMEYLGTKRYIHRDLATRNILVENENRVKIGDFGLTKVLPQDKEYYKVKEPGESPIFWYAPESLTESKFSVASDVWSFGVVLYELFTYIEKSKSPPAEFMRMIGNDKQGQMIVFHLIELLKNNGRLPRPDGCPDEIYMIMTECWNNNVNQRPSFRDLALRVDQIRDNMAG
T3 sequence (P52333 783-1124): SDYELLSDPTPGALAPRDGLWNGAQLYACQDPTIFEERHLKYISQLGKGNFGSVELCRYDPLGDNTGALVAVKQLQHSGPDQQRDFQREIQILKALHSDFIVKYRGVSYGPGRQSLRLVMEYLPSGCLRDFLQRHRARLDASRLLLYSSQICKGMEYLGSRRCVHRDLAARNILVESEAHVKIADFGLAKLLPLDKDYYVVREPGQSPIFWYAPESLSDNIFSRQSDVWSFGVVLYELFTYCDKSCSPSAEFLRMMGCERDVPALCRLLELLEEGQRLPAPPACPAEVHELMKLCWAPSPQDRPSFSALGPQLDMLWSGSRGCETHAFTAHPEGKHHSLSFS

Row | Structure (SMILES) | Ki (JAK1) [nM] | Ki (JAK2) [nM] | Ki (JAK3) [nM] | Ki (TYK2) [nM]
1 | c1ncc(CN[C@H]2CC[C@@H](n3cnc4cnc5[nH]ccc5c43)CC2)cn1 [Example 333, Pyrimidin-5-ylmethyl-[4-(6H-1,3,5,6-tetraaza-as-indacen-1-yl)-cyclohexyl]-amine] | 11.7 | 25.3 | 170 | 59.1
2 | Cc1nc2cnc3[nH]ccc3c2n1C1CCC(NC(=O)OC(C)(C)C)C1 (racemic) [Example 352, [(1S,3S)-3-(2-Methyl-6H-1,3,5,6-tetraaza-as-indacen-1-yl]-cyclopentyl]-carbamic acid tert-butyl ester] | 1.03 | 5.62 | 23.7 | 44.6
3 | O=S(=O)(CCC(F)(F)F)NCCc1nc2cnc3[nH]ccc3c2n1C1CCCCC1 [Example 509, 3,3,3-Trifluoro-propane-1-sulfonic acid [2-(1-cyclohexyl-1,6-dihydro-1,3,5,6-tetraaza-as-indacen-2-yl)-ethyl]-amide] | 2.55 | 23.6 | 65.5 | 21.6
4 | CC1CN(Cc2ccccc2)CCC1n1cnc2cnc3[nH]ccc3c21 (racemic) [Example 149, Racemic cis 1-(1-Benzyl-3-methyl-piperidin-4-yl)-1,6-dihydro-1,2,3,5,6-tetraaza-as-indacene] | 0.98 | 1.61 | 20.3 | 18.4
5 | CS(=O)(=O)c1cccc(CN2CCC(n3cnc4cnc5[nH]ccc5c43)CC2)c1 [Example 91, 1-[1-(3-Methanesulfonyl-benzyl)-piperidin-4-yl]-1,6-dihydro-1,3,5,6-tetraaza-as-indacene] | 0.64 | 3.31 | 82.1 | 142
6 | CN1CCOCC1C(=O)N1CCC(n2cnc3cnc4[nH]ccc4c32)CC1 (single isomer, unassigned) [Example 197a, (4-Methyl-morpholin-3-yl)-[4-(6H-1,2,3,5,6-tetraaza-as-indacen-1-yl)-piperidin-1-yl]-methanone] | 122 | 217 | 1930 | 2720
7 | COCCN1CCC(n2cnc3cnc4[nH]ccc4c32)CC1 [Example 63, 1-[1-(2-Methoxy-ethyl)-piperidin-4-yl]-1,6-dihydro-1,3,5,6-tetraaza-as-indacene] | 7.54 | 12 | 96.5 | 73.9
8 | CC(CC#N)N1CCC(n2c(CS(C)(=O)=O)nc3cnc4[nH]ccc4c32)CC1 (racemic) [Example 396, 3-[4-(2-Methanesulfonylmethyl-6H-1,3,5,6-tetraaza-as-indacen-1-yl)-piperidin-1-yl]-butyronitrile] | 15.5 | 35.9 | 18.1 | 95
9 | OC1CCN(Cc2nc3cnc4[nH]ccc4c3n2C2CCCCC2)CC1 [Example 932, 1-(1-Cyclohyl-1,6-dihydro-1,3,5,6-tetraaza-as-indacen-2-ylmethyl)-piperidin-4-ol] | 41 | 579 | 1050 | 357
10 | CC(CC#N)N1CCC(n2c(CN3CCCC3=O)nc3cnc4[nH]ccc4c32)CC1 (racemic) [Example 399, 3-{4-[2-(2-Oxo-pyrrolidin-1-ylmethyl)-6H-1,3,5,6-tetraaza-as-indacen-1-yl]-piperidin-1-yl}-butyronitrile] | 33.1 | 97.1 | 125 | 179
11 | Fc1cccc(CN2CCC[C@@H](n3cnc4cnc5[nH]ccc5c43)C2)c1 [Example 47, 1-[(R)-1-(3-Fluoro-benzyl)-piperidin-3-yl]-1,6-dihydro-1,3,5,6-tetraaza-as-indacene] | 13.1 | 28.9 | 52.2 | 101
12 | CC1(C(=O)N2CCC(n3cnc4cnc5[nH]ccc5c43)CC2)CCCN1 (racemic) [Example 251] | 216 | 269 | 2040 | 3450
13 | Cc1cnn(CCc2nc3cnc4[nH]ccc4c3n2C2CCN(CCC#N)CC2)c1 [Example 413, 3-(4-{2-[2-(4-Methyl-pyrazol-1-yl)-ethyl]-6H-1,3,5,6-tetraaza-as-indacen-1-yl}-piperidin-1-yl)-propionitrile] | 21.1 | 59.8 | 224 | 181
14 | O=C(Cc1nc2cnc3[nH]ccc3c2n1C1CCCOC1)NC1CCCC1 (racemic) [Example 974, N-Cyclopentyl-2-[1-(tetrahydro-pyran-3-yl)-1,6-dihydro-1,3,5,6-tetraaza-as-indacen-2-yl]-acetamide] | 25.6 | 110 | 74.6 | 194
15 | Cc1nc2cnc3[nH]ccc3c2n1C1CCN(CC(O)CO)CC1 (centres unmarked) [Example 698, 3-[4-(2-Methyl-6H-1,2,3,5,6-tetraaza-as-indacen-1-yl)-piperidin-1-yl]-propane-1,2-diol] | 6.41 | 25.6 | 66.9 | 74.4
16 | Cc1nc2cnc3[nH]ccc3c2n1[C@H]1CC[C@H](N2CCNC2=O)CC1 [Example 598, Trans 1-[4-(2-methyl-6H-1,2,3,5,6-tetraaza-as-indacen-1-yl)-cyclohexyl]-imidazolidin-2-one formic acid salt] | 7.31 | 8.34 | 12.1 | 45.5
17 | CC(O)c1nc2cnc3[nH]ccc3c2n1C1CC2CCC1O2 (single isomer, unassigned) [Example 847, endo-1-[1-(7-Oxa-bicyclo[2.2.1]hept-2-yl)-1,6-dihydro-1,3,5,6-tetraaza-as-indacen-2-yl]-ethanol] | 105 | 530 | 381 | 279
18 | CN([C@H]1CC[C@H](n2cnc3cnc4[nH]ccc4c32)CC1)S(C)(=O)=O [Example 142, Trans N-Methyl-N-[4-(6H-1,2,3,5,6-tetraaza-as-indacen-1-yl)-cyclohexyl]-methanesulfonamide] | 4.82 | 3.35 | 211 | 43.7
19 | c1cnn(Cc2nc3cnc4[nH]ccc4c3n2C2CCNCC2)c1 [Example 204, 1-Piperidin-4-yl-2-pyrazol-1-ylmethyl-1,6-dihydro-1,2,3,5,6-tetraaza-as-indacene] | 91.9 | 1540 | 862 | 1470
20 | CC(C)NC(=O)C(C)c1nc2cnc3[nH]ccc3c2n1C1CCN(CCC#N)CC1 (racemic) [Example 172, Racemic 2-{1-[1-(2-Cyano-ethyl)-piperidin-4-yl]-1,6-dihydro-1,2,3,5,6-tetraaza-as-indacene-2-yl}-N-isopropyl-propionamide] | 141 | 251 | 22.6 | 2770
21 | COC1CN(CCC#N)CCC1n1c(C)nc2cnc3[nH]ccc3c21 (racemic) [Example 538, 3-[3-Methoxy-4-(2-methyl-6H-1,3,5,6-tetraaza-as-indacen-1-yl)-piperidin-1-yl]-propionitrile] | 0.86 | 0.89 | 4.01 | 8.66
22 | N#CCC(=O)N1CCCCC(n2cnc3cnc4[nH]ccc4c32)C1 (racemic) [Example 988, 3-Oxo-3-[3-(6H-1,3,5,6-tetraaza-as-indacen-1-yl)-azepan-1-yl]-propionitrile] | 4.19 | 6.23 | 9.33 | 29.1
23 | N#CCCN1CCC(n2c(C3CCC3)nc3cnc4[nH]ccc4c32)CC1 [Example 327, 3-[4-(2-Cyclobutyl-6H-1,3,5,6-tetraaza-as-indacen-1-yl)-piperidin-1-yl]-propionitrile] | 4.84 | 16.9 | 20 | 138
24 | CCOC(=O)N1CCC(n2c([C@@H](C)O)nc3cnc4[nH]ccc4c32)CC1 [Example 927] | 176 | 613 | 383 | 711
25 | C[C@@H](O)c1nc2cnc3[nH]ccc3c2n1[C@H]1CC[C@H](NCCC#N)CC1 [Example 615, Trans 3-{4-[2-((R)-1-hydroxy-ethyl)-6H-1,2,3,5,6-tetraaza-as-indacen-1-yl]-cyclohexylamino}-propionitrile] | 1.96 | 57.5 | 137 | 21.5
26 | N#Cc1ccc(CN2CCC[C@@H](n3cnc4cnc5[nH]ccc5c43)C2)cc1 [Example 40, 4-[(R)-3-(6H-1,3,5,6-Tetraaza-as-indacen-1-yl)-piperidin-1-ylmethyl]benzonitrile] | 6.35 | 17.8 | 66.9 | 107
27 | Cc1nc2cnc3[nH]ccc3c2n1[C@@H]1CC[C@@H](NC2COC2)C1 [Example 625, [(1R,3R)-3-(2-Methyl-6H-1,2,3,5,6-tetraaza-as-indacen-1-yl)-cyclopentyl]-oxetan-3-yl-amine] | 33.9 | 99.7 | 169 | 218
28 | CCN1CCC(n2nnc3cnc4[nH]ccc4c32)C(F)(F)C1 (racemic) [Example 533, 1-(1-Ethyl-3,3-difluoro-piperidin-4-yl)-1,6-dihydro-1,2,3,5,6-pentaaza-as-indacene] | 9.05 | 15.7 | 48.8 | 59.7
29 | Cc1nc2cnc3[nH]ccc3c2n1C1CCC(C)(O)CC1 (stereo not drawn) [Example 994, Trans-1-Methyl-4-(2-methyl-6H-1,3,5,6-tetraaza-as-indacen-1-yl)-cyclohexanol] | 2.91 | 8.02 | 17 | 25.3
